In brackets after ≈: the same amount, converted by molar mass. Entries after “also recorded” stand apart in the source; their conditions may differ. Read-outs that look alike come from different tables or passages of the source.
What was measured:
ACE2 = ACE2 (Homo sapiens, UniProt Q9BYF1); assay type: biochemical
[1] = system: SARS-CoV-2 isolate USA-UF-1/2020; assay: microbe, parasite or virus in culture; assay type: cell-based; settings: for EC50: Severe acute respiratory syndrome coronavirus 2, Vero C1008, read-out: EC50, 50% inhibition of SARS-CoV-2 isolate USA-UF-1/2020 infection of Vero E6 cells
SARS-CoV-2 infection = assay: Drug usage versus SARS-CoV-2 infection in UCSF Health population; assay type: in vivo; settings: for Odds ratio: drug usage vs SARS-CoV-2 infection; for correlation of usage with protection from SARS-CoV-2 infection: statistically significant
SARS-CoV-2 Strain WA-1 = system: SARS-CoV-2 Strain WA-1; parameters: species or system hACE2-transgenic mice; settings: mouse, in vivo
[2] = parameters: species or system mice; settings: mouse, in vivo
SARS-CoV-2 = assay: N protein copies by qPCR in VeroE6 cells infected with SARS-CoV-2; assay type: cell-based; settings: VeroE6, MOI 0.01, 48 h; drug by itself
[3] = molecular target: ACE2/SARS spike protein interaction (Homo sapiens, UniProt Q9BYF1); assay type: cell-based, SARS-CoV
Sequence of ACE2/SARS spike protein interaction (Q9BYF1 18-805 limits assumed): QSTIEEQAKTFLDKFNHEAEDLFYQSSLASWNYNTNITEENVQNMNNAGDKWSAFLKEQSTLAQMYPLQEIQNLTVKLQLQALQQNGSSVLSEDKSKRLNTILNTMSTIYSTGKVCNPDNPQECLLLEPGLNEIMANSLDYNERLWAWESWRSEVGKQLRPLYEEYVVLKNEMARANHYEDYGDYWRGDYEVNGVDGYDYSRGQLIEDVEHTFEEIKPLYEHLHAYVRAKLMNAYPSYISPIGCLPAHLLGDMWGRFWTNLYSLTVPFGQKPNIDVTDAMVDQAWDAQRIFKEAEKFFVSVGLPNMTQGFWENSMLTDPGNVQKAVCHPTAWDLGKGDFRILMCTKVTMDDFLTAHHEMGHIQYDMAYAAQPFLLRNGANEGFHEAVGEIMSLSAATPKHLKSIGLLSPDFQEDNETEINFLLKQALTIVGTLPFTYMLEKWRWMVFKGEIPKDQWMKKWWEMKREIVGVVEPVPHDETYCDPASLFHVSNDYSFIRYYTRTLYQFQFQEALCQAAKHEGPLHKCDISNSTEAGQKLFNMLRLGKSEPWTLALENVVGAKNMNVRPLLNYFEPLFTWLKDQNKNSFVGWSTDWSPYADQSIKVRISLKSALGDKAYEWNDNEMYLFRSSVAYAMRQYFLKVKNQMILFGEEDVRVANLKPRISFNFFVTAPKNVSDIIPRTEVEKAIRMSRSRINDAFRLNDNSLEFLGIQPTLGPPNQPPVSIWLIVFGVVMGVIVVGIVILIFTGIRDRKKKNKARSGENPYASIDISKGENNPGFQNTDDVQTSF

[4] = system: SARS-CoV-2 isolate USA-UF-1/2020; assay type: cell-based
[5] = Cytotoxicity (50% cytotoxic concentration); assay type: cell-based
[6] = system: SARS-CoV-2 virus (isolate USA-WA1/2020); assay: microbe, parasite or virus in culture; assay type: cell-based

Sequence of ACE2 (Q9BYF1 18-805): as the sequence (Q9BYF1 18-805 limits assumed) above

CCN(CC)CCCN(c1ccccc1)C1Cc2ccccc2C1 [Aprindine, aprindine]
ACE2 binding activity (velocity of ACE2) (ACE2): Inhibited velocity of ACE2

CN(C)CCOC(c1ccccc1)c1ccccc1 [diphenhydramine]
direct antiviral activity against SARS-CoV-2 isolates in vitro [1]: exhibited direct antiviral activity

CN(C)CCC(c1ccc(Br)cc1)c1ccccn1 (centres unmarked) [Brompheniramine]
Odds ratio (SARS-CoV-2 infection): 0.76

LQSYGFQPTNGV peptide
lungs at gross necropsy (SARS-CoV-2 Strain WA-1): some damage/abscesses in the lungs | survival at 5 dpi (SARS-CoV-2 Strain WA-1): survived 5 dpi | viral load in the lungs (plaque forming units) (SARS-CoV-2 Strain WA-1): low plaque forming units per liter in the lungs | immune response in mice [2]: induced a strong immune response

CC(CN1c2ccccc2Sc2ccccc21)N(C)C (centres unmarked) [Promethazine]
reduction of viral replication in vitro (SARS-CoV-2): ~100 ×

CN(C)CC/C=C1/c2ccccc2Sc2ccc(Cl)cc21.Cl [Minithixen, Chlorprothixene hydrochloride]
ACE2 binding activity (velocity of ACE2) (ACE2; hydrochloride): Inhibited velocity of ACE2

NCCNCCN1CC1 [N-(2-aminoethyl)-1 aziridine-ethanamine, N-(2-aminoethyl)-1-aziridine-ethanamine]
ACE2/SARS spike protein interaction [3]: inhibited ACE2 interactions with SARS-CoV spike protein; also recorded: Inhibits ACE2/SARS spike protein interaction | SARS S-glycoprotein-mediated cell fusion [3]: effective in blocking the SARS coronavirus spike protein-mediated cell fusion; also recorded: inhibits SARS S-glycoprotein-mediated cell fusion; also recorded: inhibition of SARS S-glycoprotein-mediated cell fusion | ACE2 binding activity (velocity of ACE2) (ACE2): Inhibits velocity of ACE2

CN(C)CCC(c1ccc(Cl)cc1)c1ccccn1 (centres unmarked) [chlorpheniramine]
Odds ratio (SARS-CoV-2 infection): 0.23 | correlation of usage with protection from SARS-CoV-2 infection (SARS-CoV-2 infection): correlated with protection from SARS-CoV-2 infection

NCCNCCNCCN [Triethylenetetramine, triethylenetetramine]
ACE2/SARS spike protein interaction [3]: Inhibits ACE2/SARS spike protein interaction | ACE2 binding activity (velocity of ACE2) (ACE2): Inhibits velocity of ACE2

CN1CCCC(n2nc(Cc3ccc(Cl)cc3)c3ccccc3c2=O)CC1 (centres unmarked) [azelastine]
Odds ratio (SARS-CoV-2 infection): 0.16 | correlation of usage with protection from SARS-CoV-2 infection (SARS-CoV-2 infection): correlated with protection from SARS-CoV-2 infection | direct antiviral activity against SARS-CoV-2 isolates in vitro [1]: exhibited direct antiviral activity | EC50 [1]: 2.24 µg/mL (≈ 5.87 µM)

OCCOCCN1CCN(C(c2ccccc2)c2ccc(Cl)cc2)CC1 (centres unmarked) [hydroxyzine]
level of SARS-CoV-2 mRNA expressed in the cells [4]: significantly lowered | 50% cytotoxic concentration [5]: approximately 50 μg/ml | ACE2 binding activity (velocity of ACE2) (ACE2): inhibited ACE2 activity; also recorded: Inhibited velocity of ACE2 | viral burden [6]: lowered viral burden to below the level of detection | EC50 ([6]; Severe acute respiratory syndrome coronavirus 2, Vero C1008, 48 h, read-out: EC50, viral burden by plaque assay): 11.3 µg/mL (≈ 30.1 µM) | EC50 ([6]; Severe acute respiratory syndrome coronavirus 2, Vero C1008, read-out: anti-SARS-CoV-2 activity EC50): 11.3 µg/mL (≈ 30.1 µM) | Odds ratio (SARS-CoV-2 infection): 0.76 | direct antiviral activity against SARS-CoV-2 isolates in vitro [1]: exhibited direct antiviral activity | EC50 [1]: 15.3 µg/mL (≈ 40.8 µM)

O=c1c(O)c(-c2cc(O)c(O)c(O)c2)oc2cc(O)cc(O)c12 [Myricetin, myricetin]
in vitro activity against SARS-CoV-2 [6]: observed to have in vitro activity

N=C(N)c1ccc(/N=N/Nc2ccc(C(=N)N)cc2)cc1 [diminazene]
ACE2 binding activity (velocity of ACE2) (ACE2): Enhanced velocity of ACE2

CC(CCc1ccccc1)NCC(O)c1ccc(O)c(C(N)=O)c1 (centres unmarked) [labetalol]
ACE2 binding activity (velocity of ACE2) (ACE2): Enhanced velocity of ACE2

— patent US20230129326A1, “METHODS TO PREVENT SARS-COV-2 INFECTION AND TREAT COVID-19” (priority 2020, published 2023)
